In assay [1] the target is T1, ICE (Homo sapiens, UniProt P29466).
T1 sequence (P29466 120-297 limits assumed): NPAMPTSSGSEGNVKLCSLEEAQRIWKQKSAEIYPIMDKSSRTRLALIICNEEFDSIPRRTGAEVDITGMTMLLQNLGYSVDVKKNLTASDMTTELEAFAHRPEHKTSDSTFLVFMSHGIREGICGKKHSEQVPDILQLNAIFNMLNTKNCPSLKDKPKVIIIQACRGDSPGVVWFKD
T1 sequence (P29466 317-404 limits assumed): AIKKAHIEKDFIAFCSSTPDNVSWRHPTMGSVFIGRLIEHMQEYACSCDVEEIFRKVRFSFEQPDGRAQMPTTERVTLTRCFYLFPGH
As to the kind of experiment: ICE Colorimetric Dose-Response (IC50) Assay. In kind it is biochemical. As to conditions: 60 minutes preincubation, 50 µM Ac-Tyr-Val-Ala-Asp-pNA, 25°C. How it is done: (§1) Diluted inhibitor stocks are prepared by two-fold serial dilution from a primary stock whose concentration is selected (based on screening results or on prior attempts at IC50 evaluation) to achieve approximately 95% inhibition in the most concentrated well. Aliquots of each dilution are transferred to a microtitre plate in triplicate.
(§2) ICE enzyme is diluted to approximately 24 nM in HGE buffer (100 mM Hepes pH 7.5, 0.5 mM EDTA, 20% glycerol, 0.1% Bovine Serum Albumin (BSA), and activated by adding dithiothreitol (DTT) to a final concentration of 5 mM. The activated enzyme is then aliquoted into wells containing inhibitor or vehicle, and the plate is preincubated for 60 minutes at ambient temperature. Substrate (Ac-Tyr-Val-Ala-Asp-pNA) is added to each well to a final concentration of 50 µM, and plates are placed in the microtitre plate-reader thermostated to 25°C. Beginning 5 minutes after addition of substrate, absorbance (405 nm) of wells is monitored for 1 hour, and activity is calculated as the mean rate of change in absorbance during this interval.

Assay [2] has as its system IL-1β production in human peripheral blood mononuclear cells (PBMCs). Nature of the assay: PBMC Cellular Assay - IC50 Determinations (LPS-stimulated IL-1β production, ELISA). Type of assay: cell-based. As to conditions: human PBMCs stimulated overnight with 10 ng/mL LPS, mature IL-1β by ELISA. From the text:
Further evidence that compounds of Formula I are inhibitors of ICE is provided by their ability to inhibit IL-1β production in human peripheral blood mononuclear cells (PBMCs) as described herein. PBMCs are isolated from heparinized blood by centrifugation over a ficoll cushion, then washed three times with phosphate-buffered saline. PBMCs are suspended in a medium containing RPMI 1640 with glutamine, penicillin, streptomycin, and 2% human AB serum, then plated at 10^6 cells per well in 96-well flat bottom plates. PBMCs are stimulated overnight with 10 ng/mL of lipopolysaccharide (LPS, E. coli strain 0111:B4; Calbiochem) in the presence or absence of a compound of Formula I. Medium is harvested, and the level of mature IL-1β was determined using an ELISA kit from R&D Systems. Cells were cultured for an additional 4 hours in the presence of 3-(4,5-dimethylthiazol-2-yl)-2,5-diphenyltetrazolium bromide (MTT) to determine viability.

In the next assay the target is T2, Ich-2 enzyme (Homo sapiens, UniProt P49662).
T2 sequence (P49662 81-270 limits assumed): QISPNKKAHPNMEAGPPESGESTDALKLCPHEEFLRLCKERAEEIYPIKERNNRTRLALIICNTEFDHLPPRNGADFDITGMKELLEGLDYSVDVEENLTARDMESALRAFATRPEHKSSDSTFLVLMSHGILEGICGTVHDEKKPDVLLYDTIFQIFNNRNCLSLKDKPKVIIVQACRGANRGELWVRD
T2 sequence (P49662 290-377 limits assumed): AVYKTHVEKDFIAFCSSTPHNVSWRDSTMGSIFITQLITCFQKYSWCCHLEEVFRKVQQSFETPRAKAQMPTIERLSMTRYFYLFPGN
As to the kind of experiment: Ich-2 Colorimetric Dose-Response (IC50) Assay. Type of assay: biochemical. As to conditions: enzyme 64 nM, 60 µM Ac-Leu-Glu-Val-Asp-pNA; read-out: ICH2 IC50 (Caspase 4). The protocol:
as §1, §2
Inhibition of Ich-2 enzyme is assayed as described above for ICE, except that enzyme is used at 64 nM, and 60 µM of the Ich-2-specific substrate Ac-Leu-Glu-Val-Asp-pNA is used instead of the ICE substrate Ac-Tyr-Val-Ala-Asp-pNA.

The target of assay [3] is T1, ICE. Nature of the assay: ICE inhibition, Ki determination (fluorogenic substrate Ac-Tyr-Val-Ala-Asp-AMC). In kind it is biochemical. The conditions noted are these: 15 µM Ac-Tyr-Val-Ala-Asp-AMC, 0.5 nM enzyme, 30°C, reversible competitive model. The protocol: Serial dilutions of each compound of the invention are prepared using an initial 8-fold dilution of a DMSO stock into HGE (100 mM HEPES, 20% glycerol v/v, 0.5 mM EDTA), followed by seven serial 2-fold dilutions into HGE + 12.5% DMSO. Ten microliters of diluted stocks or of vehicle (HGE + 12.5% DMSO) are placed in triplicate onto a 96-well microtiter plate. Enzyme is diluted into assay buffer (HGE, 5 mM DTT, 15 µM Ac-Tyr-Val-Ala-Asp-AMC; 0.5 nM final enzyme concentration, pre-warmed to 30°C), and this reaction mixture is added to the plate at 90 µL/well. Substrate hydrolysis is monitored for 300 seconds at 30°C using 385 and 460 nm excitation and emission filters, respectively. Triplicate curves are averaged, and slopes are evaluated by linear regression. To evaluate Ki, plots of percent inhibition vs inhibitor concentration are fit by non-linear regression to a reversible, competitive model: [formula] where the competition factor is (1 + [S]/KM) = 2.

The structures appear in SMILES notation. Structures can show the parent of a compound that is named as a salt.

Drawing on patent EP1082127B1 (WARNER-LAMBERT COMPANY LLC, priority 1998, dated 1999), this text covers IC50 and Ki for eight compounds.

`CC(C)C(CC(=O)NCCCc1ccc(O)cc1)C(=O)NC(CC(=O)O)C(=O)CNS(=O)(=O)CC12CCC(CC1=O)C2(C)C` (centres unmarked) [Example 17, 5-(7,7-Dimethyl-2-oxo-bicyclo[2.2.1]hept-1-ylmethanesulfonylamino)-3-{3-methyl-2-[[3-(4-hydroxyphenyl)-propylcarbamoyl]-methyl]-butyrylamino}-4-oxo-pentanoic acid]: the IC50 against ICE [1] came to 79 nM; in assay [2], 2250 nM; at Ich-2 enzyme it was 4.68 µM. Also, the Ki at ICE [3] was found to be 32.9 nM.

Take `CC(C)C(CC(=O)NCCc1ccc2ccccc2c1)C(=O)NC(CC(=O)O)C(=O)CNS(=O)(=O)CC12CCC(CC1=O)C2(C)C` (centres unmarked) [Example 18, 5-(7,7-Dimethyl-2-oxo-bicyclo[2.2.1]hept-1-ylmethanesulfonylamino)-3-{3-methyl-2-[(2-naphthalen-2-yl-ethylcarbamoyl)-methyl]-butyrylamino}-4-oxo-pentanoic acid]: the IC50 at ICE [1] was 89.4 nM; in assay [2], 2050 nM; at Ich-2 enzyme it was 3.01 µM. The same compound had a Ki at ICE [3] of 23.6 nM.

Regarding `Cc1cccc2c(CCNC(=O)CC(C(=O)NC(CC(=O)O)C(=O)CNS(=O)(=O)CC34CCC(CC3=O)C4(C)C)C(C)C)c[nH]c12` (centres unmarked) [Example 19, 5-(7,7-Dimethyl-2-oxo-bicyclo[2.2.1]hept-1-ylmethanesulfonylamino)-3-(3-methyl-2-{(2-(7-methyl-1H-indol-3-yl)-ethylcarbamoyl]-methyl}-butyrylamino)-4-oxo-pentanoic acid], the results for the IC50 (against ICE [1]; in assay [2]; on Ich-2 enzyme) were 8.5 nM, 400 nM and 2.38 µM, respectively. On ICE [3], this compound gave a Ki of 0.9 nM.

On to `CC(C)C(CC(=O)NCCc1c[nH]c2cc(F)ccc12)C(=O)NC(CC(=O)O)C(=O)CNS(=O)(=O)CC12CCC(CC1=O)C2(C)C` (centres unmarked) [Example 20, 5-(7,7-Dimethyl-2-oxo-bicyclo[2.2.1]hept-1-ylmethanesulfonylamino)-3-(2-{[2-(6-fluoro-1H-indol-3-yl)-ethylcarbamoyl]-methyl}-3-methyl-butyrylamino)-4-oxo-pentanoic acid], for which the values for the IC50 (on ICE [1]; in assay [2]; at Ich-2 enzyme) were 11 nM, 2450 nM and 62 µM, respectively. The affinity on ICE [3] corresponds to a Ki of 1.5 nM.

Regarding `CC(C)C(CC(=O)N(C)CCc1cn(C)c2ccccc12)C(=O)NC(C=O)CC(=O)O` (centres unmarked) [Example 21, 3-[3-Methyl-2-({methyl-[2-(1-methyl-1H-indol-3-yl)-ethyl]-carbamoyl}-methyl)-butyrylamino]-4-oxo-butyric acid], the half-inhibitory concentration (IC50) was 130 nM on ICE [1], 7500 nM in assay [2] and 209 µM at Ich-2 enzyme. For the same compound, on ICE [3], affinity was put at a Ki of 28 nM.

Turning to `Cc1cc2ncn(CCNC(=O)CC(C(=O)NC(C=O)CC(=O)O)C(C)C)c2cc1C` (centres unmarked) [Example 23, 3-(2-{[2-(5,6-Dimethyl-benzoimidazol-1-yl)-ethylcarbamoyl]-methyl}-3-methyl-butyrylamino)-4-oxo-butyric acid, trifluoroacetate salt], the IC50 against ICE [1] was found to be 14.5 nM; in assay [2], 3600 nM; at Ich-2 enzyme it was 4.43 µM. For the same compound, affinity on ICE [3] was put at a Ki of 2.9 nM.

Take `CC(C)C(CC(=O)NCCCc1ccccc1)C(=O)NC(CC(=O)O)C(=O)CNS(=O)(=O)CC12CCC(CC1)C2(C)C` (centres unmarked) [Example 24, 5-(7,7-Dimethyl-bicyclo[2.2.1]hept-1-ylmethanesulfonylamino)-3-{3-methyl-2-[(3-phenyl-propylcarbamoyl)-methyl]-butyrylamino}-4-oxo-pentanoic acid]: the IC50 on ICE [1] was 360 nM; in assay [2], 1600 nM; at Ich-2 enzyme it was 8.66 µM. Also, the Ki at ICE [3] is 20.7 nM.

Turning to `CC(C)[C@H](CC(=O)NCCc1cn(C)c2ccccc12)C(=O)NC(CC(=O)O)C(=O)CNS(=O)(=O)CC12CCC(CC1)C2(C)C` (some centres unmarked) [Example 25], the IC50 on ICE [1] came out at 48.3 nM; in assay [2], 1100 nM; on Ich-2 enzyme, 3.54 µM. On ICE [3], this compound returned an inhibition constant (Ki) of 5.8 nM.
